Results: patent US12655104B2, “Anticancer compounds selective for ER-positive cancers” (THE BOARD OF TRUSTEES OF THE UNIVERSITY OF ILLINOIS, priority 2020, dated 2026)
Like-named read-outs stand apart in the source and are kept apart here.

How the values were obtained:
[1] = system: MCF-7 cells; test: Alamar blue fluorescence viability (IC50), MCF-7; assay type: cell-based; conditions: Homo sapiens
[2] = system: T47D-ERaY537S (TYS); test: Alamar blue fluorescence viability (IC50), TYS; assay type: cell-based; conditions: 24 h, read-out: IC50 24 hr (μM)
Description: (§1) Cancer Cell Lines: Culturing Conditions and Validation. All cell lines were cultured at 37° C. with 5% CO2. All ERα-positive cell lines were grown in media lacking phenol red. MCF-7 were grown in EMEM with 10% FBS and 1% penicillin-streptomycin (P/S). T47D were cultured in MEM with 10% FBS and 1% P/S. TYS and TDG cells were grown in MEM supplemented with 10% CD-FBS and 1% P/S. HCT-116 and MDA-MB-231 cells were cultured in RPMI-1640 supplemented with 10% FBS and 1% P/S. MDA-MB-436 cells were cultured in DMEM supplemented with 10% FBS and 1% P/S. HT-29 were cultured in McCoy's media supplemented with 10% FBS and 1% P/S. All cell lines were used directly from ATCC stocks and/or have been further authenticated using PowerPlex16HS Assay (Promega) as described previously.^54 In short, >1 million cells were harvested and lysed using the cell lysis buffer (50 mM Tris, 50 mM EDTA, 25 mM sucrose, 100 mM NaCl, 1% SDS, pH 8). […]
(§2) Alamar Blue Fluorescence for Anticancer Activity (IC50). […] After 2-6 hours incubation, each well's fluorescence (λexcit.=555 nm, λemission.=585 nm) was measured using a SpectraMax M3 plate reader (Molecular Devices). Percent dead was determined by comparison to a 100% dead control: 100 μM raptinal treated cells. Dose dependent curves and IC50 were calculated using Origin Pro V10.

[3] = system: T47D-ERαD538G (TDG); test: Alamar blue fluorescence viability (IC50), TDG; assay type: cell-based; conditions: 24 h, read-out: IC50 24 hr (μM)
Description: as §1, §2

[4] = system: MDA-MB-231; test: Alamar blue fluorescence viability (IC50), MDA-MB-231; assay type: cell-based; conditions: for IC50: Homo sapiens
Description: (§3) Cancer Cell Lines: Culturing Conditions and Validation. All cell lines were cultured at 37° C. with 5% CO2. All ERα-positive cell lines were grown in media lacking phenol red. MCF-7 were grown in EMEM with 10% FBS and 1% penicillin-streptomycin (P/S). T47D were cultured in MEM with 10% FBS and 1% P/S. TYS and TDG cells were grown in MEM supplemented with 10% CD-FBS and 1% P/S. HCT-116 and MDA-MB-231 cells were cultured in RPMI-1640 supplemented with 10% FBS and 1% P/S. MDA-MB-436 cells were cultured in DMEM supplemented with 10% FBS and 1% P/S. HT-29 were cultured in McCoy's media supplemented with 10% FBS and 1% P/S. All cell lines were used directly from ATCC stocks and/or have been further authenticated using PowerPlex16HS Assay (Promega) as described previously.^54 In short, >1 million cells were harvested and lysed using the cell lysis buffer (50 mM Tris, 50 mM EDTA, 25 mM sucrose, 100 mM NaCl, 1% SDS, pH 8). DNA extraction and short tandem repeats (STRs) profiling for each cell line were carried out at the University of Arizona Genetics Core (UAGC). Autosomal STR profiles were compared to reference databases such as ATCC, DSMZ, and JCRB.
(§4) Alamar Blue Fluorescence for Anticancer Activity (IC50). 2,000-15,000 cells per well were seeded a 96-well plate. Cells were allowed to adhere before DMSO stock solutions of test compounds were added to each well with a final concentration of DMSO in each well=1%; final volume: 100 μL. At the end of the desired incubation time (e.g., 24 or 72 hours), media in each well was aspirated and new fresh media (no compound, 100 μL) was added. Alamar blue solution (4 mg resazurin per 40 mL PBS) was then added (10 μL). After 2-6 hours incubation, each well's fluorescence (λexcit.=555 nm, λemission.=585 nm) was measured using a SpectraMax M3 plate reader (Molecular Devices). Percent dead was determined by comparison to a 100% dead control: 100 μM raptinal treated cells. Dose dependent curves and IC50 were calculated using Origin Pro V10.

[5] = system: HCT-116; test: Alamar blue fluorescence viability (IC50), HCT-116; assay type: cell-based; conditions: for IC50: Homo sapiens
Description: as §3, §4

[6] = system: ERα− cancer cell lines; test: Selectivity of cell killing, ERα+ versus ERα− cancer cell lines; assay type: cell-based
Description: as §3, §4

[7] = Pharmacokinetic (PK) studies in mice; assay type: in vivo
Description: Pharmacokinetic (PK) Studies. […] Mice were then sacrificed in cohorts of 3 at time points (#, #, #). Blood was collected, centrifuged, and plasma separated for quantification of test compound utilizing LC-MS/MS (UIUC Metabolomics Center, Urbana, IL.). Determined compound concentration was then analyzed using non-linear regression programing (WinNonlin) and pharmacokinetic parameters estimated.

[8] = Maximum tolerated dose (MTD) in mice; assay type: in vivo; conditions: female, CD-1, in vivo, Mouse, single dose, read-out: MTD
Description: (§5) Maximum Tolerated Dose (MTD) Experiments in Mice and Rats. […] Rodents were monitored for signs of distress, lethargy, neurotoxicity, and so forth for multiple days after compound administration. […] The MTD was defined as the maximum dose in which any acute side effects observed were tolerated and no lethality observed.

[9] = system: CD-1 mice; test: Maximum tolerated dose (MTD) in mice; assay type: in vivo
Description: as §5

[10] = Maximum tolerated dose (MTD) in rats; assay type: in vivo; conditions: Sprague Dawley, in vivo, iv; Rat, I.V., single dose; read-out: MTD
Description: as §5

[11] = system: CD Sprague Dawley IGS rats; test: Maximum tolerated dose (MTD) in rats; assay type: in vivo; conditions: Rat, I.V.
Description: as §5

[12] = system: anticipatory unfolded protein response (a-UPR); test: a-UPR immunoblotting/western blot in MCF-7 cells; assay type: cell-based
Description: a-UPR Immunoblotting/Western Blot Procedure. 400,000 MCF-7 cells/per well were seeded into 6 or 12 well plates and allowed to adhere overnight. Media was then aspirated from each well and then fresh media with diluted test compound (0.1% DMSO concentration) was added accordingly. Cells were incubated for 4 or 6 hours, then harvested. PBS-washed cell pellets were then lysed using RIPA buffer containing phosphatase (BioVision) and protease inhibitor cocktail (Calbiochem). Protein concentrations were determined using the BCA assay (Pierce). Lysates containing 10-15 μg of protein were loaded onto 4-20% gradient gels (BioRad), and SDS-PAGE was run. Proteins were then transferred onto membrane (PDVF Millipore) and blots blocked with BSA solution (2 g in 40 mL TBST) for one hour. After blocking, primary antibody was added and incubated overnight (using manufacturer's recommended dilutions). Following overnight incubation, blots were washed with TBST (5-minute incubation for each wash, washed 3 times), then incubated with HRP-linked secondary antibody for 1 hour in TBST. Blots were washed (10-minute incubation for each wash for a total of two ten-minute washes). SuperSignal West Pico Solution was then added following manufacturer's procedures and blots imaged with ChemiDoc.
Antibodies. […]

[13] = female, CD-1, mouse, in vivo, iv, I.V. 20 mg/kg

O=C1Nc2c(C(F)(F)F)cccc2[C@@]1(c1ccc(O)cc1)N1CCC(F)(F)CC1 (single isomer, unassigned) [ErSO-DFP]
IC50 ([1]; MCF7, 24 h, read-out: IC50 24 hr (μM)): 0.017 ± 0.002 µM | IC50 ([1]; MCF7, 72 h, read-out: IC50 72 hr (μM)): 0.017 ± 0.001 µM | IC50 ([1]; MCF7, read-out: pIC50 (converted)): 0.017 µM | IC50 [2]: 0.007 ± 0.001 µM | IC50 [3]: 0.009 ± 0.001 µM | Fold Change ([4]; Average Fold Change between 24/72 hr IC50 values for MCF-7 and MDA-MB-231): 1882 | IC50 ([4]; MDA-MB-231, 24 h, read-out: IC50 24 hr (μM)): 55 ± 5 µM | IC50 ([4]; MDA-MB-231, 72 h, read-out: IC50 72 hr (μM)): 32 ± 4 µM | Fold Change ([5]; Average Fold Change between 24/72 hr IC50 values for MCF-7 and HCT-116): 3235 | effects bottom out at (% cell death at lower concentrations) ([5]; HCT-116 cells, bottom of IC50 curve): ~0% | IC50 ([5]; HCT-116, 24 h, read-out: IC50 24 hr (μM)): 55 µM | IC50 ([5]; HCT-116, 72 h, read-out: IC50 72 hr (μM)): 55 µM | average fold difference between IC50 values of ERα+ and ERα− cancer cell lines ([6]; measured at both 24 and 72 hours): > 2750 fold | IC50 ([6]; read-out: IC50 in ERα− cell lines): > 25 µM | AUC ratio ErSO-DFP:ErSO ([7]; I.V. 20 mg/kg): 0.6 | CL ratio ErSO-DFP:ErSO ([7]; I.V. 20 mg/kg): 1.6 | Cmax ratio ErSO-DFP:ErSO ([7]; I.V. 20 mg/kg): 1.9 | MRT ratio ErSO-DFP:ErSO ([7]; I.V. 20 mg/kg): 0.2 | Vss ratio ErSO-DFP:ErSO ([7]; I.V. 20 mg/kg): 0.3 | AUC as % of the ErSO value ([7]; I.V., head-to-head): ~60% | AUC [7, 13]: 6370 ng·h/mL | Cmax [7, 13]: 14700 ng/mL | MRT [7, 13]: 52.8 min | clearance [7, 13]: 52 mL/min/kg | Vd ([7]; female, CD-1, mouse, in vivo, iv, I.V. 20 mg/kg, read-out: Vss): 2.75 L/kg | bioavailability ([7]; female, CD-1, mouse, in vivo, po, read-out: oral availability F %): 6% | MTD ([8]; iv, I.V.): 95 mg/kg | MTD ([8]; po, P.O.): > 200 mg/kg | Fold Increase Rel. to ErSO (MTD) ([9]; Mouse, I.V.): 4.8 | fold increase in tolerability relative to ErSO ([9]; both mice and rats, administered intravenously): ~5 fold | MTD [10]: > 50 mg/kg | Fold Increase Rel. to ErSO (MTD) [11]: 3.3-5 | MTD ([11]; single dose): >50 mg/kg | a-UPR activation (P-AMPK, P-EIF2α, cleavage of ATF6α p90), western blot [12]: activates the a-UPR in a time- and concentration-dependent manner
